Data from patent US11518758B2, “Heteroarylaminopyrimidine amide autophagy inhibitors and methods of use thereof” (Deciphera Pharmaceuticals, LLC, priority 2019, dated 2022).

Legend:
LRRK2 kinase = biological target: T1, LRRK2 kinase (Homo sapiens, UniProt Q5S007); test: Biochemical assay for LRRK2 (coupled pyruvate kinase/lactate dehydrogenase assay); conditions: 26.4 nM LRRK2 (residues 970-2528), 0.1 mM peptide substrate, 1 mM ATP
T1 construct: purchased Thermo Fisher

ULK1 kinase = biological target: T2, ULK1 kinase (Homo sapiens, UniProt O75385, E37A/K38A); test: Biochemical assay for ULK1.3 (coupled pyruvate kinase/lactate dehydrogenase assay); conditions: 0.1 nM ULK1 (from Beryllium), peptide substrate, 1 mM ATP
T2 construct: (residues 1-283; ID NO: 2); purchased Beryllium
T2 sequence (O75385 1-283 E37A/K38A): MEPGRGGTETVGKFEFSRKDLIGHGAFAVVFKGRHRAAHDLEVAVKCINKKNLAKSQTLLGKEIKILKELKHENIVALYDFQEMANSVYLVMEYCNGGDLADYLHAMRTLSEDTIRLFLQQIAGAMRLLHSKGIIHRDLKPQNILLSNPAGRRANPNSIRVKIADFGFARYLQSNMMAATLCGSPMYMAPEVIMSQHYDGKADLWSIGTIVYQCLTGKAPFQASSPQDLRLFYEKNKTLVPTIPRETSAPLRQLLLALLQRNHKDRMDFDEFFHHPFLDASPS
Experimental: Example 175. Biochemical Assay for ULK1.3
Activity of ULK1 kinase was determined spectroscopically using a coupled pyruvate kinase/lactate dehydrogenase assay that continuously monitors the ATP hydrolysis-dependent oxidation of NADH (e.g., Schindler et al. Science (2000) 289: 1938-1942). Assays were conducted in 384-well plates (100 uL final volume) using 0.1 nM ULK1 (from Beryllium), 0.075 mM peptide substrate (YANWLAASIYLDGKKK (SEQ ID NO: 5)), 1.5 units pyruvate kinase, 2.1 units lactate dehydrogenase, 1 mM phosphoenol pyruvate, 0.28 mM NADH and 1 mM ATP in assay buffer (100 mM Tris, pH 7.5, 15 mM MgCl2, 0.5 mM DTT, 0.004% (w/v) BSA, and 0.004% Triton X-100). Inhibition of ULK1 was measured by adding serial diluted test compound (final assay concentration of 1% DMSO). A decrease in absorption at 340 nm was monitored continuously for 6 hours at 30° C. on a multi-mode microplate reader (BioTek). The reaction rate was calculated using the 2-3 h time frame. The reaction rate at each concentration of compound was converted to percent inhibition using controls (i.e. reaction with no test compound and reaction with a known inhibitor) and IC50 values were calculated using software routines in Prism (GraphPad software).

T1 sequence (Q5S007 with tags, fused parts or gaps): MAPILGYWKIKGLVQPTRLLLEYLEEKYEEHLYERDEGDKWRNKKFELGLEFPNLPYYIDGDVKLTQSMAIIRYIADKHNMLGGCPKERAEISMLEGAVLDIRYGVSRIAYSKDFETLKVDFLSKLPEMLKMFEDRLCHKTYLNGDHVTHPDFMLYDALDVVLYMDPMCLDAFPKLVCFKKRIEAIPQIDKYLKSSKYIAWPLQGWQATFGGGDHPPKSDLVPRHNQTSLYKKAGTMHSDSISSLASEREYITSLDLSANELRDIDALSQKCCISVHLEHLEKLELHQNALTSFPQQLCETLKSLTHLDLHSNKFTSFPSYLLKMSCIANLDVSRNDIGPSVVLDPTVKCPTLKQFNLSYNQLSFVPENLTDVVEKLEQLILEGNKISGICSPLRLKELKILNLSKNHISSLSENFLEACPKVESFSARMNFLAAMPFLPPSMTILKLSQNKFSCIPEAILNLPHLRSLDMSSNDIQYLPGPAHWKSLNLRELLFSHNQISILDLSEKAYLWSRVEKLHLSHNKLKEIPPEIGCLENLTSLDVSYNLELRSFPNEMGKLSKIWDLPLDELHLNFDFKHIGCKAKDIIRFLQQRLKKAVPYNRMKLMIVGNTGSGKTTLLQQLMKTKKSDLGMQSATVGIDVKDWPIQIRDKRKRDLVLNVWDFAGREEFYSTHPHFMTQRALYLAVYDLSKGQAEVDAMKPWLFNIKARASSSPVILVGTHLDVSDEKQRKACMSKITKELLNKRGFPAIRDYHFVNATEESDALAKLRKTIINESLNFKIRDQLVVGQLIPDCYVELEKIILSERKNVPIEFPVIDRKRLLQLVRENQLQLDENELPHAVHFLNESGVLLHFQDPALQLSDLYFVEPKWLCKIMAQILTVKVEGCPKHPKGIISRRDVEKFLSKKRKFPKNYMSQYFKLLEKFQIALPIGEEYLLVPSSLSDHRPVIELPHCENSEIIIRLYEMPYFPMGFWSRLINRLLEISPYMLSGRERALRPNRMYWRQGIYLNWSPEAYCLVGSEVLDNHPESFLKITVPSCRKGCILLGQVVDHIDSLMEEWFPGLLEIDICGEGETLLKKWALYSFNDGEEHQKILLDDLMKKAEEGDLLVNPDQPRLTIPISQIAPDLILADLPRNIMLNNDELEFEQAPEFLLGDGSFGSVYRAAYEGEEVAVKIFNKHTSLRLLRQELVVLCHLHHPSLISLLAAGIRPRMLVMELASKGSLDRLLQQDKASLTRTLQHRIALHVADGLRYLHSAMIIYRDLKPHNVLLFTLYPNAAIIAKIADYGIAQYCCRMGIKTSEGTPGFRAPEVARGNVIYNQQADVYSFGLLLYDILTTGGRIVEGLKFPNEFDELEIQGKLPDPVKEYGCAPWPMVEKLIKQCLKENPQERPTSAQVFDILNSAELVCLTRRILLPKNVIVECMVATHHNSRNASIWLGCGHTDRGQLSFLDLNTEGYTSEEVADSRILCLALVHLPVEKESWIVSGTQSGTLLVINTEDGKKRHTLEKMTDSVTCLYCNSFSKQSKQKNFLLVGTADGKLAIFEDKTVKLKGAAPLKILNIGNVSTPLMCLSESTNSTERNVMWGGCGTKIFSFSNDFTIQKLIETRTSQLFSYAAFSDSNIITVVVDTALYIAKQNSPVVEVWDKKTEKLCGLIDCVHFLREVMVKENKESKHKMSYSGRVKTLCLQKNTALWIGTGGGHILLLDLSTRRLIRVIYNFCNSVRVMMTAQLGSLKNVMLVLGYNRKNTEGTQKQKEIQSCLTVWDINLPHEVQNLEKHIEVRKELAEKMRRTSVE

Cc1nn(C2CCN(C)CC2)cc1Nc1ncc(C(F)(F)F)c(NCCCN2CCCCC2=O)n1 [Example 8]
IC50 (LRRK2 kinase): 100 to 300 nM

Cc1nn([C@H]2CCN(C)C2)cc1Nc1ncc(Br)c(NCCCN2CCCCC2=O)n1 [Example 61]
IC50 (ULK1 kinase): 25 to 100 nM

CCN1CC[C@H](n2cc(Nc3ncc(Br)c(NCCCN4CCCCC4=O)n3)c(C)n2)C1 [Example 64]
IC50 (LRRK2 kinase): 300 to 600 nM

Cc1nn(C2CCN(C(C)C)CC2)cc1Nc1ncc(C(F)(F)F)c(NCCCN2CCCOC2=O)n1 [Example 68]
IC50 (ULK1 kinase): 25 to 100 nM

Cc1nn(C2CCN(C)CC2)cc1Nc1ncc(C(F)(F)F)c(NCCCN2CCCOCC2=O)n1 [Example 102]
IC50 (ULK1 kinase): 1 to 25 nM

Cc1nn(C2CCN(C)CC2)cc1Nc1ncc(C(F)(F)F)c(NCCCN2CCOCCC2=O)n1 [Example 127]
IC50 (ULK1 kinase): 1 to 25 nM
